This is an account of results in ChEMBL document CHEMBL5653631, “A Potent and Selective ULK1 Inhibitor Suppresses Autophagy and Sensitizes Cancer Cells to Nutrient Stress” (iScience, 2018).

SMILES strings stand for the structures.

Assay [1] addresses Rho-associated protein kinase 1 (Homo sapiens) (UniProt Q13464). The experiment in a line: Inhibition of human recombinant ROCK1 at 40 nM related to control ULK1.
Assay [2] concerns the target MAP kinase-activated protein kinase 2 (Homo sapiens) (UniProt P49137). The experiment in a line: Inhibition of human recombinant MAPKAPK2 at 40 nM related to control ULK1.
In assay [3] the target is Focal adhesion kinase 1 (Homo sapiens) (UniProt Q05397). In words: Inhibition of human recombinant FAK at 40 nM in presence of ATP by radiometric assay relative to control.
Chain of Focal adhesion kinase 1 (Homo sapiens) (Q05397 2-1052 limits assumed): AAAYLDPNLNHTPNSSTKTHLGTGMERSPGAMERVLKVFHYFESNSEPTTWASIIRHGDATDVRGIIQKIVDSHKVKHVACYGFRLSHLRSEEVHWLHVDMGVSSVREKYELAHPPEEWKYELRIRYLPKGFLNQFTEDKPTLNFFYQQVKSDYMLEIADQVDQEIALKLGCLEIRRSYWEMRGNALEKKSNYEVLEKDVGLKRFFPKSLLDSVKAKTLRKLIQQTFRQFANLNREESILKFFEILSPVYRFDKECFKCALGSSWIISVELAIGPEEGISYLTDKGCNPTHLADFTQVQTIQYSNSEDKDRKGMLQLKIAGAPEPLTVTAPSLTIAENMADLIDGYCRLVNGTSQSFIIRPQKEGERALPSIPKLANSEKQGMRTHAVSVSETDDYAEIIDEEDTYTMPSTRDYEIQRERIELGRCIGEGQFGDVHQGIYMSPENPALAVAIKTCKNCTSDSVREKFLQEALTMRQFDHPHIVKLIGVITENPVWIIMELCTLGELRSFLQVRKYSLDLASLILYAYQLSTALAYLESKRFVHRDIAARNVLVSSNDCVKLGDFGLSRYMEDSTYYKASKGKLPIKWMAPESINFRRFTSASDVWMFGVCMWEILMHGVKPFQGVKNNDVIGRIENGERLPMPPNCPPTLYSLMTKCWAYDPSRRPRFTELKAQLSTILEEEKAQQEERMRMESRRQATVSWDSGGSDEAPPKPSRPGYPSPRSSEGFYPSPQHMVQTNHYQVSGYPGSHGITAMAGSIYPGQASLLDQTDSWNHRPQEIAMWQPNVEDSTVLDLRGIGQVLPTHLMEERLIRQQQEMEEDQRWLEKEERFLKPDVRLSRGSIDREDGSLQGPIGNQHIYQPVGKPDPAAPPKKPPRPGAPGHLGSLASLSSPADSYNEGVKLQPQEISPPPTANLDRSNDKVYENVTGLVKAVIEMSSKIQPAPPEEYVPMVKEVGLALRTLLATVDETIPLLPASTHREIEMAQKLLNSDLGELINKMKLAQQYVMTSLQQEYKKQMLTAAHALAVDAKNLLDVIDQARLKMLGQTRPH
Assay [4] has as its target Serine/threonine-protein kinase 32B (Homo sapiens) (UniProt Q9NY57). The experiment in a line: Inhibition of human recombinant YANK2 at 40 nM related to control ULK1.
In assay [5] the target is Protein-tyrosine kinase 2-beta (Homo sapiens) (UniProt Q14289). The experiment in a line: Inhibition of human recombinant PYK2 at 40 nM related to control ULK1.
Chain of Protein-tyrosine kinase 2-beta (Homo sapiens) (Q14289 whole entry, looked up): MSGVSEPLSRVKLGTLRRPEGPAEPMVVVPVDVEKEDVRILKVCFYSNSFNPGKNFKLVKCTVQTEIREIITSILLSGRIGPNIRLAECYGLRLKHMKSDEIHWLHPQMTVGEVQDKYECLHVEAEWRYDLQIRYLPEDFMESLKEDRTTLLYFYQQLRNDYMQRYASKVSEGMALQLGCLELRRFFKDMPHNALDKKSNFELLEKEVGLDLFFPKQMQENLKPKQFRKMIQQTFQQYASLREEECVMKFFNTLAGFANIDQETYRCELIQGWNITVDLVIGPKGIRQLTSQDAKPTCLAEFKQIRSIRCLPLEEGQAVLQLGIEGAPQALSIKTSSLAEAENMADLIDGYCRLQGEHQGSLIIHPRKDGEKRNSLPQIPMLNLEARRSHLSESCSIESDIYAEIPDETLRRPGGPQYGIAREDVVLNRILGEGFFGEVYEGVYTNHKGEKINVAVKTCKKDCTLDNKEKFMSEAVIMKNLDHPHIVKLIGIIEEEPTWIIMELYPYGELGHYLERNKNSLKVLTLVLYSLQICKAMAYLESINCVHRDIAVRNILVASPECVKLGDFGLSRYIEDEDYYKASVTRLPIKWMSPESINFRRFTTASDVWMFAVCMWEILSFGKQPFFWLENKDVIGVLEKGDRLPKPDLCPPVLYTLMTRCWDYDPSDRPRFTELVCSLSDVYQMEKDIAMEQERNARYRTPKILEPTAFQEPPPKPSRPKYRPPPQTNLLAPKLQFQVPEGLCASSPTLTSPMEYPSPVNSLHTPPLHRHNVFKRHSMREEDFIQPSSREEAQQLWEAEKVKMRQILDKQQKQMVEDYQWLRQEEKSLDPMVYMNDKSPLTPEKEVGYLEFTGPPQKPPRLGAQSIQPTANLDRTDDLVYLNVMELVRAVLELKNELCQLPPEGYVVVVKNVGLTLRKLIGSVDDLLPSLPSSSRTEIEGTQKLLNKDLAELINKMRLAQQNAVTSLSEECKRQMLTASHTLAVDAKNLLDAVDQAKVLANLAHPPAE
For assay [6], the target named is T1, Serine/threonine-protein kinase Chk1 (Homo sapiens) (UniProt O14757).
T1 sequence (whole entry): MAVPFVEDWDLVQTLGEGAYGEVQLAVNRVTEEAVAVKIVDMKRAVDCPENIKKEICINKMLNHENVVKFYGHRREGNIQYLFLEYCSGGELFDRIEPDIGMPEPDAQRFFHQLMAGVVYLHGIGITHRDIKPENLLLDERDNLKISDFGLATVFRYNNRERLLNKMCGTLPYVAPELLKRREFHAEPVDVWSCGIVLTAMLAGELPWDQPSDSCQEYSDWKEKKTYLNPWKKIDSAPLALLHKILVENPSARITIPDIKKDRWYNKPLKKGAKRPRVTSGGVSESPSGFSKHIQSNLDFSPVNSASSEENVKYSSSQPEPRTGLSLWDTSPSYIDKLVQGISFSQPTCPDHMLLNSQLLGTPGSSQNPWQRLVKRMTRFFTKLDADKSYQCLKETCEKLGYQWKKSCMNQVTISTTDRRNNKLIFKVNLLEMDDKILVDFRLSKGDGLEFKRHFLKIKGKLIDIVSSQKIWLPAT
The experiment in a line: Inhibition of human recombinant CHK1 at 500 nM in presence of ATP by radiometric assay relative to control.

Assay [7] has as its target Cell division cycle 7-related protein kinase (Homo sapiens) (UniProt O00311). The experiment in a line: Inhibition of human recombinant CDC7 at 15 nM in presence of ATP by radiometric assay relative to control.
For assay [8], the target named is Serine/threonine-protein kinase NIM1 (Homo sapiens) (UniProt Q8IY84). The experiment in a line: Inhibition of human recombinant NIM1 at 15 nM in presence of ATP by radiometric assay relative to control.
In assay [9] the target is Serine/threonine-protein kinase MAK (Homo sapiens) (UniProt P20794). In words: Inhibition of human recombinant MAK at 15 nM related to control ULK1.
Chain of Serine/threonine-protein kinase MAK (Homo sapiens) (P20794 whole entry, looked up): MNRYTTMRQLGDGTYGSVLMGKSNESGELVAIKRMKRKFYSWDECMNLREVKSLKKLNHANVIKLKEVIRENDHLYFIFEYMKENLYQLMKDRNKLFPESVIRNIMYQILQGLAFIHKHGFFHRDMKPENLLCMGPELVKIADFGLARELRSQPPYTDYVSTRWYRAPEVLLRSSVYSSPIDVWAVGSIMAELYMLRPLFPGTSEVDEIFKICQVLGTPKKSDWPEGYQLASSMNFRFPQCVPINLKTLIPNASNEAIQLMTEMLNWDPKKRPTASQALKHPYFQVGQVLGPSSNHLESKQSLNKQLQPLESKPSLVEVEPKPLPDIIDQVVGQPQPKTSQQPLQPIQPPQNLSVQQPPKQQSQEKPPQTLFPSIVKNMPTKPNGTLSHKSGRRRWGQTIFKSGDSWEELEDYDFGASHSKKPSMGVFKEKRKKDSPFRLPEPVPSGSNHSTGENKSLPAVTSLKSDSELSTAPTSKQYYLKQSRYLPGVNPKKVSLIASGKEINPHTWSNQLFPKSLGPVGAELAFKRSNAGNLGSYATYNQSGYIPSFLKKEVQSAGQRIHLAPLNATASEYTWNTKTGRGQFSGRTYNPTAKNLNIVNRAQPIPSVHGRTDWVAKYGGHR
For assay [10], the target named is Ribosomal protein S6 kinase alpha-6 (Homo sapiens) (UniProt Q9UK32). In words: Inhibition of human recombinant RSK4 at 15 nM in presence of ATP by radiometric assay relative to control.
Assay [11] addresses T2, Testis-specific serine/threonine-protein kinase 3 (Homo sapiens) (UniProt Q96PN8).
T2 sequence (whole entry): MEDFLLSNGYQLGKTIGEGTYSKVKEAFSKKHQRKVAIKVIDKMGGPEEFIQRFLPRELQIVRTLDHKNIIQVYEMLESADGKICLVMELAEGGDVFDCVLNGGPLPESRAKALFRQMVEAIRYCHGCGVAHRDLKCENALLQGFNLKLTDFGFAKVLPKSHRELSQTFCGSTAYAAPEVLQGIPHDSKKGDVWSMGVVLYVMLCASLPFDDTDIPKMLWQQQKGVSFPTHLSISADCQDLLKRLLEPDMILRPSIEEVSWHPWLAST
In words: Inhibition of human recombinant TSSK3 at 15 nM related to control ULK1.

Assay [12] deals with Serine/threonine-protein kinase PAK 2 (Homo sapiens) (UniProt Q13177). In words: Inhibition of human recombinant PAK2 at 15 nM in presence of ATP by radiometric assay relative to control.
Assay [13] addresses T3, Muscle, skeletal receptor tyrosine-protein kinase (Homo sapiens) (UniProt O15146).
T3 sequence (whole entry): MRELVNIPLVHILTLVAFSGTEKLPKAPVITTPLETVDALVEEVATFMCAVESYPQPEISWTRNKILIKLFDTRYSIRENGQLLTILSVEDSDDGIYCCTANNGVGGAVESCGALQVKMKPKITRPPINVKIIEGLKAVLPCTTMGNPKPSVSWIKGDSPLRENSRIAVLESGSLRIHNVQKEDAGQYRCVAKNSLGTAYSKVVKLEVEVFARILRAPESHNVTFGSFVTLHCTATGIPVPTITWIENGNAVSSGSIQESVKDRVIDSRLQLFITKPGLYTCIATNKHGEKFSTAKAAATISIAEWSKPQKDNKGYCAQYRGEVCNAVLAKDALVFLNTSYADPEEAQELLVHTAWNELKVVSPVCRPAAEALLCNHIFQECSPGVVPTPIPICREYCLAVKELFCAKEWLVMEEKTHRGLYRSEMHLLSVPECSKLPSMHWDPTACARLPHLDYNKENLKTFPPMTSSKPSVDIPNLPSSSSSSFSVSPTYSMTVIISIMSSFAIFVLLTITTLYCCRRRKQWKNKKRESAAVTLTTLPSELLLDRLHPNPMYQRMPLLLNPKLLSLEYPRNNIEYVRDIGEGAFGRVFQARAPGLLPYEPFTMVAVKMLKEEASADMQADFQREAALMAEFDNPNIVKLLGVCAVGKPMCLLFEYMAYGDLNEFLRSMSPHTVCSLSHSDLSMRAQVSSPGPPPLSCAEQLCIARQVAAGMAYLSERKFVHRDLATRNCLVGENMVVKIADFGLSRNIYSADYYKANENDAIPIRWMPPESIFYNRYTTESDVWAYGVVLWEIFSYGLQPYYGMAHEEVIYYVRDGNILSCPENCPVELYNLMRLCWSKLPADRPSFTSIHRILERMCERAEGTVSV
The experiment in a line: Inhibition of human recombinant MUSK at 15 nM related to control ULK1.

For assay [14], the target named is Transcription initiation factor TFIID subunit 1-like (Homo sapiens) (UniProt Q8IZX4). The experiment in a line: Inhibition of human recombinant TAF1L at 15 nM related to control ULK1.
Chain of Transcription initiation factor TFIID subunit 1-like (Homo sapiens) (Q8IZX4 whole entry): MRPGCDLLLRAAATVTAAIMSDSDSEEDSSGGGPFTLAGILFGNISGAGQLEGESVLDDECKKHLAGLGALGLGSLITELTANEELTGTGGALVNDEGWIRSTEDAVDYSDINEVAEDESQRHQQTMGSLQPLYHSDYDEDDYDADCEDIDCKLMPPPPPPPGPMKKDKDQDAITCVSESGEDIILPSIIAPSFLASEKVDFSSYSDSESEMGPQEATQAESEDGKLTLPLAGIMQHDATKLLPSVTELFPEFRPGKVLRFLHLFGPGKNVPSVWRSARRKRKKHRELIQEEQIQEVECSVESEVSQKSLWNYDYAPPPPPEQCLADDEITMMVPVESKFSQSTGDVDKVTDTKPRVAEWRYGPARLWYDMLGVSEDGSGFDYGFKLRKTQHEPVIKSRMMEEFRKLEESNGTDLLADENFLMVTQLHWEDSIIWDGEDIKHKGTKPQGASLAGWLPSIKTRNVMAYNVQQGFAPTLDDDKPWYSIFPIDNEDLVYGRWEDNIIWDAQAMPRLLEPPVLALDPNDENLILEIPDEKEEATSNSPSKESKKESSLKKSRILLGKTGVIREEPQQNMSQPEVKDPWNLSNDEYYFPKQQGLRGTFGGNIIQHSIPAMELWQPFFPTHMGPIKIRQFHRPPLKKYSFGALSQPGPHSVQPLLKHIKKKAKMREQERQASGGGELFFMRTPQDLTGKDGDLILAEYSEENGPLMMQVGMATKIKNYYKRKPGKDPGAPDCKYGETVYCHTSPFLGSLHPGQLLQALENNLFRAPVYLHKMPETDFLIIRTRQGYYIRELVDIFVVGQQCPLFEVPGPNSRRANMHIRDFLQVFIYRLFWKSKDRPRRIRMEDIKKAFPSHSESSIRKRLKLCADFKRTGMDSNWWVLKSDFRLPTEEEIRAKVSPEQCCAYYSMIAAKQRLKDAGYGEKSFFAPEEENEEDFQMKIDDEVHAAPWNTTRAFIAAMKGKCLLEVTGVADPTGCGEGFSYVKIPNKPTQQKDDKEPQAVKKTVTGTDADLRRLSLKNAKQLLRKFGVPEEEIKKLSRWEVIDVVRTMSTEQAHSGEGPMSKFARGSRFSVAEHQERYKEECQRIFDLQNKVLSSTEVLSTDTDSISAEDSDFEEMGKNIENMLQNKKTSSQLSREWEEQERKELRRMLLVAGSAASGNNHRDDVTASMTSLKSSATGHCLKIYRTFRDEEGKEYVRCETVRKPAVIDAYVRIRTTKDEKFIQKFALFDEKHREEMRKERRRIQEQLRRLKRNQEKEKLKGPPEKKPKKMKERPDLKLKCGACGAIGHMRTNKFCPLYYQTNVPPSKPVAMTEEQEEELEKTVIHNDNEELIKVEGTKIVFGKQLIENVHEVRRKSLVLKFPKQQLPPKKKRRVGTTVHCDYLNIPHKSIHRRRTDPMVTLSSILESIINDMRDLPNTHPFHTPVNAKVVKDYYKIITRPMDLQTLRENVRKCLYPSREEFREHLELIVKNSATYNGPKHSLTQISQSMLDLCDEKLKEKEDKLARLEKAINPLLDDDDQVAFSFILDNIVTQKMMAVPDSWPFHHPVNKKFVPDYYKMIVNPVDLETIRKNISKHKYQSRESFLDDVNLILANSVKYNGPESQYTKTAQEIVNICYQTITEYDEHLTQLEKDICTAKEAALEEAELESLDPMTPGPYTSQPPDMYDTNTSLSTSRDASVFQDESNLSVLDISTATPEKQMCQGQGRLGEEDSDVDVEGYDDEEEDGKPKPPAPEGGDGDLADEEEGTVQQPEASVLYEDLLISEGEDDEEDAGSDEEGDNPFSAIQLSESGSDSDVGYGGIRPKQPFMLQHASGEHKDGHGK
The target of assay [15] is Homeodomain-interacting protein kinase 2 (Homo sapiens) (UniProt Q9H2X6). In words: Inhibition of human recombinant HIPK2 at 15 nM related to control ULK1.

Chain of MAP kinase-activated protein kinase 2 (Homo sapiens) (P49137 whole entry, looked up): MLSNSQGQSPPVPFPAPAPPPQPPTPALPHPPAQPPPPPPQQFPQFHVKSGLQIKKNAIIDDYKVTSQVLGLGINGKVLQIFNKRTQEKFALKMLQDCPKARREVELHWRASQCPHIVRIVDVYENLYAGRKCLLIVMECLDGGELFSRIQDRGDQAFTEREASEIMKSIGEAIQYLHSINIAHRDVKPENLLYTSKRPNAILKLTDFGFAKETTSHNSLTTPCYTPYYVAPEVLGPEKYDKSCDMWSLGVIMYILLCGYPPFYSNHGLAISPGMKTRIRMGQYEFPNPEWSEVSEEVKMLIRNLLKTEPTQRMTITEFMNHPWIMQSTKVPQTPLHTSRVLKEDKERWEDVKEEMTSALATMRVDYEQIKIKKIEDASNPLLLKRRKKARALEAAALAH

Take `O=C(N[C@@H](C1CC1)C(F)(F)F)c1cc(-c2cnn3cc(-c4ccc(F)cc4)cnc23)cs1`: the fold change (FC) came to 0 in assay [1], 0 in assay [2], 0.04 in assay [4] and 0.04 in assay [5]. Moreover, the inhibition (in general, how much of the control response was suppressed) in assay [3] was determined as 0%.

`CNC(=O)c1ccccc1Oc1nc(Nc2cc(OC)c(OC)c(OC)c2)ncc1Br`: in assay [6], the inhibition worked out at 4%.

Take `CC(C)[C@H](NC(=O)c1cc(-c2cnn3cc(-c4ccc(OCCN5CCCCC5)cc4)cnc23)cs1)C(F)(F)F`: the inhibition in [7] came to 8%; in assay [8], 6%; in assay [10], 0%; in [12], 0%. The fold change (FC) is 0.06 in assay [9]; 0.16 in assay [11]; 0 in assay [13]; 0.49 in assay [14]; 0.03 in [15].
